# Measured values: PMC7113690 (Antiviral Research, 2015)
# Structures can show the parent of a compound that is named as a salt. Where two headings read alike, the source gives them in different places.
# What was measured:
# [1] = test system: VSV G/HIV core pseudovirus (pVSV); assay: organism not typed; format: cell-based; settings: for EC50: read-out: EC50 pVSV
# [2] = test system: EBOV (Zaire strain) GP/HIV core pseudovirus (pEBOV); assay: organism not typed; format: cell-based, Ebola virus (Zaire strain); settings: for EC50: read-out: EC50 pEBOV
# [3] = test system: EBOV pseudovirus (pEBOV) entry into Vero cells; format: cell-based, Ebola virus (Zaire strain)
# [4] = test system: Ebola virus (Zaire strain) minigenome; format: cell-based
# bacteremia = settings: in vivo, 40 mg/kg; cited from earlier work
# [5] = in vivo; cited from earlier work
# [6] = test system: Coxsackievirus A16 (CV-A16, strain SHZH05-1); format: cell-based
# EBOV = settings: mouse, in vivo, 14 mg/kg; cited from earlier work
# [7] = cited from earlier work
# [8] = test system: poliovirus 1 (PV1, strain Sabin); format: cell-based
# [9] = test system: enterovirus 71 (EV-A71, strain G082); format: cell-based
# eGFP-EBOV = settings: cited from earlier work
compound,measurement,setting,value
C[C@@H]1CC[C@H]2[C@@H](C)C(=O)O[C@@H]3O[C@@]4(C)CC[C@@H]1[C@]32OO4 [Artemisinin],EC50,"[1]; Vero, 72 h",162 µM
same,EC50,"[2]; Vero, 72 h",74.1 µM
O=C(OCC(O)CO)c1ccccc1Nc1ccnc2cc(Cl)ccc12 (centres unmarked) [Glafenine],EC50,"[1]; Vero, 72 h",10.9 µM
same,EC50,"[2]; Vero, 72 h",11.1 µM
CC(C(=O)O)c1ccc(N2Cc3ccccc3C2=O)cc1 (centres unmarked) [Indoprofen],EC50,"[1]; Vero, 72 h",8.51 µM
same,EC50,"[2]; Vero, 72 h",9.37 µM
Oc1c(I)cc(I)c2cccnc12 [Iodoquinol],EC50,"[1]; Vero, 72 h",3.45 µM
same,EC50,"[2]; Vero, 72 h",3.5 µM
C[C@H](N)[C@H](O)c1ccc(O)c(O)c1 [Levonordefrin],EC50,"[1]; Vero, 72 h",> 50 µM
same,EC50,"[2]; Vero, 72 h",> 50 µM
CCN(CC)CCOCCOC(=O)C(CC)(CC)c1ccccc1 [Oxeladin],EC50,"[1]; Vero, 72 h",38.1 µM
same,EC50,"[2]; Vero, 72 h",8.06 µM
Fc1ccc([C@@H]2CCNC[C@H]2COc2ccc3c(c2)OCO3)cc1 [Paroxetine],EC50,"[1]; Vero, 72 h",7.39 µM
same,EC50,"[2]; Vero, 72 h",2.4 µM
CN1CCC(=C2c3ccccc3Sc3ccccc32)CC1 [Pimethixene maleate],EC50,"[1]; Vero, 72 h",14.8 µM
same,EC50,"[2]; Vero, 72 h",10.7 µM
O=C1C=C2C=C[C@@H]3C[C@@]2(O1)[C@H]1CCCCN31 [Securinine],EC50,"[1]; Vero, 72 h",26.6 µM
same,EC50,"[2]; Vero, 72 h",27.1 µM
CN(C)CCOc1ccc(/C(=C(/CCCl)c2ccccc2)c2ccccc2)cc1 [Toremiphene],EC50,"[1]; Vero, 72 h",7.53 µM
same,EC50,"[2]; Vero, 72 h",0.38 µM
CN[C@H](CC(C)C)C(=O)N[C@H]1C(=O)N[C@@H](CC(N)=O)C(=O)N[C@H]2C(=O)N[C@H]3C(=O)N[C@H](C(=O)N[C@H](C(=O)O)c4cc(O)cc(O)c4-c4cc3ccc4O)[C@H](O)c3ccc(c(Cl)c3)Oc3cc2cc(c3O[C@@H]2O[C@H](CO)[C@@H](O)[C@H](O)[C@H]2O[C@H]2C[C@](C)(N)[C@H](O)[C@H](C)O2)Oc2ccc(cc2Cl)[C@H]1O [vancomycin],inhibition at 125 µM,"[2]; Vero, read-out: inhibition of pEBOV",24.7%
Teicoplanin,"inhibition of pEBOV infection, during infection",[3],efficiently inhibited infection
same,"inhibition of pEBOV infection, post-attachment",[3],no inhibition was detected
same,"inhibition of pEBOV infection, pre-attachment",[3],efficiently inhibited infection
same,inhibition of EBOV minigenome replication,[4],did not inhibit
same,safety and decrease of bacteremia,bacteremia,safe and effectively in decreasing bacteremia
same,Cmin at which toxicity is seen,[5],≥ 60000 ng/mL
same,trough plasma concentration (Cmin),[5],20000 to 60000 ng/mL
same,inhibition of CV-A16,[6],no inhibition was observed
same,protection of EBOV-infected mice,EBOV,no protection was observed
same,bound to plasma protein,[7],90%
same,inhibition of PV1,[8],no inhibition was observed
same,inhibition of EV-A71,[9],no inhibition was observed
same,activity against eGFP-EBOV in vitro,eGFP-EBOV,active
same,inhibition of pVSV infection,[1]; 125 µM,less than 20%
same,EC50,[1],> 125 µM
same,CC50,Vero cells,> 125 µM
same,cytotoxicity,Vero cells,without cytotoxicity
same,inhibition of pEBOV infection (in words),[2]; 125 µM,completely inhibited
same,EC50,[2],2.38 µM
same,EC90,[2]; read-out: EC90 pEBOV,9.36 µM
